Reference: the kinase profiling compilation of Christmann-Franck et al. (2016)

Tests used:
Assay in all cases: KINOMEscan competition binding
Details in all cases: compound 10.0 µM
PRKCE (human) = PRKCE (human) (UniProt Q02156)
PTK6 (human) = PTK6 (human) (UniProt Q13882)
STK3 (human) = STK3 (human) (UniProt Q13188)
HCK (human) = HCK (human) (UniProt P08631)
EPHA6 (human) = EPHA6 (human) (UniProt Q9UF33)
RIPK1 (human) = RIPK1 (human) (UniProt Q13546)
RPS6KA2 KD2 (human) = RPS6KA2 KD2 (human) (UniProt Q15349)
ULK1 (human) = ULK1 (human) (UniProt O75385)
RPS6KA4 KD2 (human) = RPS6KA4 KD2 (human) (UniProt O75676)
MAP3K7 (human) = MAP3K7 (human) (UniProt O43318)
MAPK15 (human) = MAPK15 (human) (UniProt Q8TD08)
TTK (human) = TTK (human) (UniProt P33981)
EPHB2 (human) = EPHB2 (human) (UniProt P29323)
MAP3K5 (human) = MAP3K5 (human) (UniProt Q99683)
IRAK3 (human) = IRAK3 (human) (UniProt Q9Y616)
RPS6KA4 KD1 (human) = RPS6KA4 KD1 (human) (UniProt O75676)
MAP3K4 (human) = MAP3K4 (human) (UniProt Q9Y6R4)
MAP3K4 (human), sequence (Q9Y6R4 whole entry, looked up): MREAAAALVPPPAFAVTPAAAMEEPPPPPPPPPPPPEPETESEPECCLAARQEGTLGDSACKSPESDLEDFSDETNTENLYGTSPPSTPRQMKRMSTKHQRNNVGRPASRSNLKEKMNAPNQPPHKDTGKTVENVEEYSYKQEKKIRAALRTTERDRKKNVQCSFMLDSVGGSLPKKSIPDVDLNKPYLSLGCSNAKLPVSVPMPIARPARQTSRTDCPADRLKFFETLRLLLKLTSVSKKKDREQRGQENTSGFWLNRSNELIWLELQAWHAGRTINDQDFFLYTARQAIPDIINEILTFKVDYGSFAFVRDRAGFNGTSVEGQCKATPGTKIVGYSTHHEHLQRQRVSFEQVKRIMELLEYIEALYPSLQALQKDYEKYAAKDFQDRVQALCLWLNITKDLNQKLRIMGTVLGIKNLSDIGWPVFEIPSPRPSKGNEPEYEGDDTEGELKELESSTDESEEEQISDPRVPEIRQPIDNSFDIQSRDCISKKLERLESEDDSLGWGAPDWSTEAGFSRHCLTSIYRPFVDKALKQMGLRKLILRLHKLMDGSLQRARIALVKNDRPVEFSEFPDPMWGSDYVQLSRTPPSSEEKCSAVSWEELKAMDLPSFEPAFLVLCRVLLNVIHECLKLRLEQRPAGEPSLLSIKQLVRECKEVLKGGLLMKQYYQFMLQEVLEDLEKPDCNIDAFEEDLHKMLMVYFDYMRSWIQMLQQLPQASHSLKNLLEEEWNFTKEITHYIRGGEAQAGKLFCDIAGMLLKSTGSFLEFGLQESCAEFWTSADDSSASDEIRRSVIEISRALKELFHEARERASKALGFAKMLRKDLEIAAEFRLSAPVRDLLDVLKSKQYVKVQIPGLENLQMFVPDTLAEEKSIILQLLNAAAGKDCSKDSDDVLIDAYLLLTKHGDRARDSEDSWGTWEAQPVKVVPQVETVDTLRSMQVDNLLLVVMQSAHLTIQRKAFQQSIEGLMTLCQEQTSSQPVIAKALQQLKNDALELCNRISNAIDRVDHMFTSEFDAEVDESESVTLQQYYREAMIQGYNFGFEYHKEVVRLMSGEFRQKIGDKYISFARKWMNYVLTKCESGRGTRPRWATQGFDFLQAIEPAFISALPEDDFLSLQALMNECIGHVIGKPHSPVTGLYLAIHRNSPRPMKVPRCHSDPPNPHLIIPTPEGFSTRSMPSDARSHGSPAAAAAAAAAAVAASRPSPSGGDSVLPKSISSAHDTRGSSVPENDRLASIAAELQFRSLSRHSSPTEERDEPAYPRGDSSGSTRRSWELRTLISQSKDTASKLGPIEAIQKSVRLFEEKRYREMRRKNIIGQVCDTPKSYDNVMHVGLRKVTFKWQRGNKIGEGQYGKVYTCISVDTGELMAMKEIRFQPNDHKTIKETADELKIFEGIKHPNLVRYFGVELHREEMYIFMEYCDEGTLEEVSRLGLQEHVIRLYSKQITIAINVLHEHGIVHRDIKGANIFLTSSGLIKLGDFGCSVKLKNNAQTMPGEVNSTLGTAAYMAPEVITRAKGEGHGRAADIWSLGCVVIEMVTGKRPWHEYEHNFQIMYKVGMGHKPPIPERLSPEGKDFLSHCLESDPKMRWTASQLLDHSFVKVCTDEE

ZAP70 (human) = ZAP70 (human) (UniProt P43403)
MAPK6 (human) = MAPK6 (human) (UniProt Q16659)
CAMK2D (human) = CAMK2D (human) (UniProt Q13557)
CAMK2D (human), sequence (Q13557 whole entry, looked up): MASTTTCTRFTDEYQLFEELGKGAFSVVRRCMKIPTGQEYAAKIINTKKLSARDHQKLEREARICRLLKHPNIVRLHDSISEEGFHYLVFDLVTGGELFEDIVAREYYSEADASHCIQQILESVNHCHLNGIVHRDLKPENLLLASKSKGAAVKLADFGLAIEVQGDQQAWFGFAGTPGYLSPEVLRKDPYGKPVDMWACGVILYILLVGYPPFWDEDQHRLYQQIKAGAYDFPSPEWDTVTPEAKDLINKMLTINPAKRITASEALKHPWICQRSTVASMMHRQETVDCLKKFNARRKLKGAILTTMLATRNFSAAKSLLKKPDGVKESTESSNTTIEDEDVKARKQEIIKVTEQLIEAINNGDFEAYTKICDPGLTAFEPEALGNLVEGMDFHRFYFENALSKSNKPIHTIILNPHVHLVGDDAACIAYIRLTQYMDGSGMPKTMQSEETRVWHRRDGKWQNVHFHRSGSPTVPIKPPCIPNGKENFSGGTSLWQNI

TGFBR2 (human) = TGFBR2 (human) (UniProt P37173)
EPHB4 (human) = EPHB4 (human) (UniProt P54760)
PAK1 (human) = PAK1 (human) (UniProt Q13153)
PTK2 (human) = PTK2 (human) (UniProt Q05397)
CDK19 (human) = CDK19 (human) (UniProt Q9BWU1)
CDK19 (human), sequence (Q9BWU1 whole entry, looked up): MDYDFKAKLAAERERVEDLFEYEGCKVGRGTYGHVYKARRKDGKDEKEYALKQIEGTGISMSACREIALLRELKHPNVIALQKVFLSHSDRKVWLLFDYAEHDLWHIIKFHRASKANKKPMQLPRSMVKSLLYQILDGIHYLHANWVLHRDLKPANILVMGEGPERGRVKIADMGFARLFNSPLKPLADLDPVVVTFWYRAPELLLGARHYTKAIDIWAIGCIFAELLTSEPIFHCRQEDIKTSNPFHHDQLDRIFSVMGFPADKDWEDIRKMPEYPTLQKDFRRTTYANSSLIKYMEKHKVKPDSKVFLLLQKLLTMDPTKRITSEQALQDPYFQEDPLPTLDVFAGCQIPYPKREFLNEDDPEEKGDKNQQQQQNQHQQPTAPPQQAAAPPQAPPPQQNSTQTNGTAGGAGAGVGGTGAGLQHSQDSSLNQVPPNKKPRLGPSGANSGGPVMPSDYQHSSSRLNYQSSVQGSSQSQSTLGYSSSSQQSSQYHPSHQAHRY

TLK1 (human) = TLK1 (human) (UniProt Q9UKI8)
ACVR1 (human) = ACVR1 (human) (UniProt Q04771)
ACVR2A (human) = ACVR2A (human) (UniProt P27037)
IKBKE (human) = IKBKE (human) (UniProt Q14164)
AAK1 (human) = AAK1 (human) (UniProt Q2M2I8)
CSF1R (human) = CSF1R (human) (UniProt P07333)
MAPK13 (human) = MAPK13 (human) (UniProt O15264)
MAPK12 (human) = MAPK12 (human) (UniProt P53778)
MAPK12 (human), sequence (P53778 whole entry, looked up): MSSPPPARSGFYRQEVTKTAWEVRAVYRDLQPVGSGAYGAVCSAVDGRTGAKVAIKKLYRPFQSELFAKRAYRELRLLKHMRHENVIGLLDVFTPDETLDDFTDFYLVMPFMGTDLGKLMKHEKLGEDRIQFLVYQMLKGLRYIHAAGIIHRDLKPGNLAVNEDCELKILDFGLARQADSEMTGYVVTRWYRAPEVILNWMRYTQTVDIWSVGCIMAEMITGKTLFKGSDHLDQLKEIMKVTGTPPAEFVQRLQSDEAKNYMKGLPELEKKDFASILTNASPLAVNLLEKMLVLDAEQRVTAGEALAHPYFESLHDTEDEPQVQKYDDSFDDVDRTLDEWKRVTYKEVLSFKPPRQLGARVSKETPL

RIOK1 (human) = RIOK1 (human) (UniProt Q9BRS2)
RIOK1 (human), sequence (Q9BRS2 whole entry, looked up): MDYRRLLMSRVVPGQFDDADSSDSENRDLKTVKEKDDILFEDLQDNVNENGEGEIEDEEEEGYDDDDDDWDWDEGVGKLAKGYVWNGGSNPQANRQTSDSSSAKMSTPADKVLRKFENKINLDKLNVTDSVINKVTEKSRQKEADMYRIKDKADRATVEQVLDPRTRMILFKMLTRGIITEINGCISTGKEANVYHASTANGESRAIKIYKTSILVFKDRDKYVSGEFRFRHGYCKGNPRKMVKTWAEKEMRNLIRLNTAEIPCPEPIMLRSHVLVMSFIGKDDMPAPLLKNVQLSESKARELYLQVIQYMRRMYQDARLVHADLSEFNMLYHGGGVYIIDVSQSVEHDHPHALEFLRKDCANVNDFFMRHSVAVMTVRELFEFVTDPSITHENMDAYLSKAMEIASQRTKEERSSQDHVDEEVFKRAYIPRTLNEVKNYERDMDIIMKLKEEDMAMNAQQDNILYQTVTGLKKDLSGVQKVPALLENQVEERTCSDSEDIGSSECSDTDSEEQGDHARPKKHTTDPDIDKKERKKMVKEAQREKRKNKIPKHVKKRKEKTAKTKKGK

DDR2 (human) = DDR2 (human) (UniProt Q16832)
EPHA7 (human) = EPHA7 (human) (UniProt Q15375)
EPHA2 (human) = EPHA2 (human) (UniProt P29317)
EPHA3 (human) = EPHA3 (human) (UniProt P29320)
EPHA3 (human), sequence (P29320 whole entry, looked up): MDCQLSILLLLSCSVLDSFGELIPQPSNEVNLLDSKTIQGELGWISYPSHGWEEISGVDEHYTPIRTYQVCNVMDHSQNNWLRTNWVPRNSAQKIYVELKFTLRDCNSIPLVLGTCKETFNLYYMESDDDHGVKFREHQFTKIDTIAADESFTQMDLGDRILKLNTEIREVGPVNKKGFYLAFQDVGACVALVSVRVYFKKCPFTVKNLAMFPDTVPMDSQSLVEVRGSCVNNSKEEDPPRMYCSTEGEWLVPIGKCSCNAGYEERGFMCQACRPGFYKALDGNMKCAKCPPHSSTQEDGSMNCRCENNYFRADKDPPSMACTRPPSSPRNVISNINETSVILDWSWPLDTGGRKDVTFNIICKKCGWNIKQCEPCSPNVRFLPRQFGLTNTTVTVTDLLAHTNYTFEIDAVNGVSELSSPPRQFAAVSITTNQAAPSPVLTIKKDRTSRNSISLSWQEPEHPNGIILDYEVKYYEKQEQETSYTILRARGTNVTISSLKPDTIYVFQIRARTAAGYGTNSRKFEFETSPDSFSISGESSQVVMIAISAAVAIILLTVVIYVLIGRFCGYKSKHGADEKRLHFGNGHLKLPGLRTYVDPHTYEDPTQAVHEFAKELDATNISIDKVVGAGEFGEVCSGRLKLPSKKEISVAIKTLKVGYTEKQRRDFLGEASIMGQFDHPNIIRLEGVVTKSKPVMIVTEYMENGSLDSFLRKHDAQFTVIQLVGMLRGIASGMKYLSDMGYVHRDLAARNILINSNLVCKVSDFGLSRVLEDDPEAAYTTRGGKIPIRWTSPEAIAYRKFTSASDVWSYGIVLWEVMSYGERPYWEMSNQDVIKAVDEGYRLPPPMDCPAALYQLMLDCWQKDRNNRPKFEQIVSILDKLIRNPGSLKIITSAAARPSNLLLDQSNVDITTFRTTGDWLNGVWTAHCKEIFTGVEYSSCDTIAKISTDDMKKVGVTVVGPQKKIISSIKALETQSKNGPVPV

CAMK2G (human) = CAMK2G (human) (UniProt Q13555)
PTK2B (human) = PTK2B (human) (UniProt Q14289)

PTK6 (human), sequence (Q13882 whole entry, looked up): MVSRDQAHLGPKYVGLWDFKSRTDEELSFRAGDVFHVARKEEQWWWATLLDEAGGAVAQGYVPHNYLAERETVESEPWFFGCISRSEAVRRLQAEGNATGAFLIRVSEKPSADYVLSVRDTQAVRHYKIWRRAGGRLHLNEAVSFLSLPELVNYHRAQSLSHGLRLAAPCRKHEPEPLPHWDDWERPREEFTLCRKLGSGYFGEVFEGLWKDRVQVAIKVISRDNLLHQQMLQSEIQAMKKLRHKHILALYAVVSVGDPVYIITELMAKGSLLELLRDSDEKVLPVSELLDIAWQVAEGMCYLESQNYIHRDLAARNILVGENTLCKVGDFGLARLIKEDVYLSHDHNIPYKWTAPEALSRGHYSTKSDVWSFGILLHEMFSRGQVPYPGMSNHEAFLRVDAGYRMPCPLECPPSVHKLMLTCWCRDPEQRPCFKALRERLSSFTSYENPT

Row | Structure (SMILES) | kinase still bound, per cent of control (PRKCE (human)) [%] | kinase still bound, per cent of control (PTK6 (human)) [%] | kinase still bound, per cent of control (STK3 (human)) [%] | kinase still bound, per cent of control (HCK (human)) [%] | kinase still bound, per cent of control (EPHA6 (human)) [%] | kinase still bound, per cent of control (RIPK1 (human)) [%] | kinase still bound, per cent of control (RPS6KA2 KD2 (human)) [%] | kinase still bound, per cent of control (ULK1 (human)) [%] | kinase still bound, per cent of control (RPS6KA4 KD2 (human)) [%] | kinase still bound, per cent of control (MAP3K7 (human)) [%] | kinase still bound, per cent of control (MAPK15 (human)) [%] | kinase still bound, per cent of control (TTK (human)) [%] | kinase still bound, per cent of control (EPHB2 (human)) [%] | kinase still bound, per cent of control (MAP3K5 (human)) [%] | kinase still bound, per cent of control (IRAK3 (human)) [%] | kinase still bound, per cent of control (RPS6KA4 KD1 (human)) [%] | kinase still bound, per cent of control (MAP3K4 (human)) [%] | kinase still bound, per cent of control (ZAP70 (human)) [%] | kinase still bound, per cent of control (MAPK6 (human)) [%] | kinase still bound, per cent of control (CAMK2D (human)) [%] | also measured
1 | CN(C)C/C=C/C(=O)Nc1cccc(Nc2ncc3c(n2)N(C)c2ccccc2C(=O)N3C)c1 | 67 | 37 | 0 | 13 | 91 | 28 | 21 | 0.15 | 70 | 6.2 | 100 | 28 | 100 | 100 | 44 | 59 | 73 | 60 | 46 | 62 | kinase still bound, per cent of control (TGFBR2 (human)): 55%; kinase still bound, per cent of control (EPHB4 (human)): 83%; kinase still bound, per cent of control (PAK1 (human)): 91%; kinase still bound, per cent of control (PTK2 (human)): 14%; kinase still bound, per cent of control (CDK19 (human)): 100%; kinase still bound, per cent of control (TLK1 (human)): 100%; kinase still bound, per cent of control (ACVR1 (human)): 45%; kinase still bound, per cent of control (ACVR2A (human)): 57%; kinase still bound, per cent of control (IKBKE (human)): 100%; kinase still bound, per cent of control (AAK1 (human)): 20%; kinase still bound, per cent of control (CSF1R (human)): 0.1%; kinase still bound, per cent of control (MAPK13 (human)): 61%; kinase still bound, per cent of control (MAPK12 (human)): 83%; kinase still bound, per cent of control (RIOK1 (human)): 18%; kinase still bound, per cent of control (DDR2 (human)): 11%; kinase still bound, per cent of control (EPHA7 (human)): 100%; kinase still bound, per cent of control (EPHA2 (human)): 82%; kinase still bound, per cent of control (EPHA3 (human)): 43%; kinase still bound, per cent of control (CAMK2G (human)): 46%; kinase still bound, per cent of control (PTK2B (human)): 74%
2 | CCC(=O)N1CCN(c2ccc(-n3c(=O)ccc4cnc5ccc(-c6cnc7ccccc7c6)cc5c43)cc2C(F)(F)F)CC1 | 86 | 51 | 24 | 77 | 75 | 1.9 | 85 | 100 | 100 | 47 | 79 | 9.6 | 100 | 100 | 27 | 100 | 47 | 100 | 1.8 | 72 | kinase still bound, per cent of control (TGFBR2 (human)): 77%; kinase still bound, per cent of control (EPHB4 (human)): 85%; kinase still bound, per cent of control (PAK1 (human)): 73%; kinase still bound, per cent of control (PTK2 (human)): 14%; kinase still bound, per cent of control (CDK19 (human)): 1.2%; kinase still bound, per cent of control (TLK1 (human)): 100%; kinase still bound, per cent of control (ACVR1 (human)): 28%; kinase still bound, per cent of control (ACVR2A (human)): 47%; kinase still bound, per cent of control (IKBKE (human)): 87%; kinase still bound, per cent of control (AAK1 (human)): 75%; kinase still bound, per cent of control (CSF1R (human)): 24%; kinase still bound, per cent of control (MAPK13 (human)): 39%; kinase still bound, per cent of control (MAPK12 (human)): 71%; kinase still bound, per cent of control (RIOK1 (human)): 81%; kinase still bound, per cent of control (DDR2 (human)): 100%; kinase still bound, per cent of control (EPHA7 (human)): 98%; kinase still bound, per cent of control (EPHA2 (human)): 59%; kinase still bound, per cent of control (EPHA3 (human)): 70%; kinase still bound, per cent of control (CAMK2G (human)): 79%; kinase still bound, per cent of control (PTK2B (human)): 100%
3 | OCCCNc1cc(-c2ccnc(Nc3cccc(Cl)c3)n2)ccn1 | 100 | 100 | 100 | 100 | 100 | 100 | 100 | 100 | 100 | 100 | 2 | 100 | 100 | 100 | 100 | 100 | 100 | 100 | 100 | 100 | kinase still bound, per cent of control (TGFBR2 (human)): 100%; kinase still bound, per cent of control (EPHB4 (human)): 100%; kinase still bound, per cent of control (PAK1 (human)): 100%; kinase still bound, per cent of control (PTK2 (human)): 100%; kinase still bound, per cent of control (CDK19 (human)): 100%; kinase still bound, per cent of control (TLK1 (human)): 100%; kinase still bound, per cent of control (ACVR1 (human)): 100%; kinase still bound, per cent of control (ACVR2A (human)): 100%; kinase still bound, per cent of control (IKBKE (human)): 100%; kinase still bound, per cent of control (AAK1 (human)): 21%; kinase still bound, per cent of control (CSF1R (human)): 100%; kinase still bound, per cent of control (MAPK13 (human)): 100%; kinase still bound, per cent of control (MAPK12 (human)): 100%; kinase still bound, per cent of control (RIOK1 (human)): 100%; kinase still bound, per cent of control (DDR2 (human)): 100%; kinase still bound, per cent of control (EPHA7 (human)): 100%; kinase still bound, per cent of control (EPHA2 (human)): 100%; kinase still bound, per cent of control (EPHA3 (human)): 100%; kinase still bound, per cent of control (CAMK2G (human)): 100%; kinase still bound, per cent of control (PTK2B (human)): 100%
